Assay results reported in PMC4767141, “Discovery of Potent, Orally Bioavailable, Small-Molecule Inhibitors of WNT Signaling from a Cell-Based Pathway Screen” (Journal of Medicinal Chemistry, 2015).

Columns and labels:
[1] = target: T1, AURKB (Homo sapiens, UniProt Q96GD4); test: Millipore kinase panel; format: biochemical; conditions: read-out: % Control
T1 construct: purchased Millipore KinaseProfiler (kinases); Cerep (receptors and ion channels)

[2] = target: T2, SAPK2B (Homo sapiens, UniProt Q15759); test: Millipore kinase panel; format: biochemical; conditions: read-out: % Control
T2 construct: purchased Millipore KinaseProfiler (kinases); Cerep (receptors and ion channels)

[3] = target: T3, TAO1 (Homo sapiens, UniProt Q7L7X3); test: Millipore kinase panel; format: biochemical; conditions: read-out: % Control
T3 construct: purchased Millipore KinaseProfiler (kinases); Cerep (receptors and ion channels)

[4] = target: T4, PKA (Homo sapiens, UniProt P17612); test: Millipore kinase panel; format: biochemical; conditions: read-out: % Control
T4 construct: purchased Millipore KinaseProfiler (kinases); Cerep (receptors and ion channels)

[5] = target: T5, RET (Homo sapiens, UniProt P07949); test: Millipore kinase panel; format: biochemical; conditions: read-out: % Control
T5 construct: purchased Millipore KinaseProfiler (kinases); Cerep (receptors and ion channels)

[6] = target: T6, Y2 (h) (Homo sapiens, UniProt P49146); test: CEREP binding panel; conditions: agonist radioligand, read-out: % Inhibition of Control Specific Binding
T6 construct: purchased Millipore KinaseProfiler (kinases); Cerep (receptors and ion channels)

[7] = target: T7, HIPK1 (Homo sapiens, UniProt Q86Z02); test: Millipore kinase panel; format: biochemical; conditions: read-out: % Control
T7 construct: purchased Millipore KinaseProfiler (kinases); Cerep (receptors and ion channels)
T7 sequence (Q86Z02 whole entry): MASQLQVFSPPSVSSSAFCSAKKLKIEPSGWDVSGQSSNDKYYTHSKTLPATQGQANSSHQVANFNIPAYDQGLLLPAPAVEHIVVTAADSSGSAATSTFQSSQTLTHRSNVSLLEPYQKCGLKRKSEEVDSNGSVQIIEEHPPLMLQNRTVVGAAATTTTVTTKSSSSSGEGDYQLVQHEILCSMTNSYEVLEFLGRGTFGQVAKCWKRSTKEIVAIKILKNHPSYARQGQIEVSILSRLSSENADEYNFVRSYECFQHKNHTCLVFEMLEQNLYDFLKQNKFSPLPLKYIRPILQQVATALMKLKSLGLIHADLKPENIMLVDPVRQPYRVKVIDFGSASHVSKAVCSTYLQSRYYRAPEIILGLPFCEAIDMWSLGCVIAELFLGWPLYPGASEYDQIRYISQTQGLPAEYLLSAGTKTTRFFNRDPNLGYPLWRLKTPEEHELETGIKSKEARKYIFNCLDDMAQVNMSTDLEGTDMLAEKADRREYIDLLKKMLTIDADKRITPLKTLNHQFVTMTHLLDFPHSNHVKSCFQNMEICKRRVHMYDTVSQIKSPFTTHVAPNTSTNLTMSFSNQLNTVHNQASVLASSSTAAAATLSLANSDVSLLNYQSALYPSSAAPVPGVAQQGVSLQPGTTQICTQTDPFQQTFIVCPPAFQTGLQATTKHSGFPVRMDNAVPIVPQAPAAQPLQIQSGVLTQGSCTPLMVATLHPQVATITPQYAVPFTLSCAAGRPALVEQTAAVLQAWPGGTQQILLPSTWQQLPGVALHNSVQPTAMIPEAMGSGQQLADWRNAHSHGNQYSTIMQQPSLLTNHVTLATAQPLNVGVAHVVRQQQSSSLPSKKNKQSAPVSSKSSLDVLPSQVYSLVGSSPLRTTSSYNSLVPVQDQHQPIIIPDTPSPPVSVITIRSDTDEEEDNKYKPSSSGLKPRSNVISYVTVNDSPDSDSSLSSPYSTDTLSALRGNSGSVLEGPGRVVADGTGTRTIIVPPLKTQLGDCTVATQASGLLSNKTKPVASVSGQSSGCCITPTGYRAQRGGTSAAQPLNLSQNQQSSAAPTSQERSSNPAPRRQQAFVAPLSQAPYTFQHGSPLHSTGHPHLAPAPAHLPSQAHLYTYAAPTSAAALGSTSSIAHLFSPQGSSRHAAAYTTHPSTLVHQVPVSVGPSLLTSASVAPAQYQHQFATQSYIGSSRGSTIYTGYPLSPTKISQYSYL

[8] = tested on: KV channel; test: CEREP binding panel; conditions: 10 μM, antagonist radioligand
[9] = target: T8, 5-HT5a (h) (Homo sapiens, UniProt P47898); test: CEREP binding panel; conditions: agonist radioligand, read-out: % Inhibition of Control Specific Binding
T8 construct: purchased Millipore KinaseProfiler (kinases); Cerep (receptors and ion channels)

[10] = target: T9, TAO3 (Homo sapiens, UniProt Q9H2K8); test: Millipore kinase panel; format: biochemical; conditions: read-out: % Control
T9 construct: purchased Millipore KinaseProfiler (kinases); Cerep (receptors and ion channels)

[11] = target: T10, ALK (Homo sapiens, UniProt Q9UM73); test: Millipore kinase panel; format: biochemical; conditions: read-out: % Control
T10 construct: purchased Millipore KinaseProfiler (kinases); Cerep (receptors and ion channels)

[12] = target: T11, MSK2 (Homo sapiens, UniProt O75676); test: Millipore kinase panel; format: biochemical; conditions: read-out: % Control
T11 construct: purchased Millipore KinaseProfiler (kinases); Cerep (receptors and ion channels)
T11 sequence (O75676 whole entry): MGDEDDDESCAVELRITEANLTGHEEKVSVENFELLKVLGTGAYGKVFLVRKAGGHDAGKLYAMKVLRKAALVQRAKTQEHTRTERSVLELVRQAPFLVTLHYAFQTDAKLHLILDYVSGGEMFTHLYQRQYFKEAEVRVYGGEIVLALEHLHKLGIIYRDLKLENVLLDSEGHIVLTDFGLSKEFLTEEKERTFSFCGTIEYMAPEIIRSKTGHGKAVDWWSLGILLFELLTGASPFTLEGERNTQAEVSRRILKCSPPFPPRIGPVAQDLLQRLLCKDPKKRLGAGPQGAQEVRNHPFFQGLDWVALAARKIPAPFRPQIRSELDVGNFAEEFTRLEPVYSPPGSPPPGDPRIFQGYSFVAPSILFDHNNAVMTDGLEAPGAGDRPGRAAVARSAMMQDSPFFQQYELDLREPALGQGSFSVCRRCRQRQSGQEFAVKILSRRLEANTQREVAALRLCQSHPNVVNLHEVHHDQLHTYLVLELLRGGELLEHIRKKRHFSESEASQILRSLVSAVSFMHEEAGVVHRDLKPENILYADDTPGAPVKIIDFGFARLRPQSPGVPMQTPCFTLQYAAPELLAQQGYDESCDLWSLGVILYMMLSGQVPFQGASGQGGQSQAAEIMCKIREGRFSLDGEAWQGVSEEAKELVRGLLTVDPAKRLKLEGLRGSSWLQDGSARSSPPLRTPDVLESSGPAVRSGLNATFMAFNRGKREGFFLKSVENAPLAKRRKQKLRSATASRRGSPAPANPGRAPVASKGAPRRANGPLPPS

[13] = target: T12, GAL2 (h) (Homo sapiens, UniProt O43603); test: CEREP binding panel; conditions: agonist radioligand, read-out: % Inhibition of Control Specific Binding
T12 construct: purchased Millipore KinaseProfiler (kinases); Cerep (receptors and ion channels)
T12 sequence (O43603 whole entry): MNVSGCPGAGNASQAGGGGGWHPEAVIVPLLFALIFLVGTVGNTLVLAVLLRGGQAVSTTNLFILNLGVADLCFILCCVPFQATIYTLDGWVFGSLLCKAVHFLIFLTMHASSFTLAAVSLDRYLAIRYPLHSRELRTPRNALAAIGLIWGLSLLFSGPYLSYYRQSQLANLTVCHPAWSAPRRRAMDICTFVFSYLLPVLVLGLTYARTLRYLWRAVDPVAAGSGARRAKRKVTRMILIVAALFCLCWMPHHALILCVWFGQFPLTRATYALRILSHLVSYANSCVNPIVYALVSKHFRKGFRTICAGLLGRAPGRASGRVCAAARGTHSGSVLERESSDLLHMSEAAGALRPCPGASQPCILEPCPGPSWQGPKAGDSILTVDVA

[14] = target: T13, H2 (h) (Homo sapiens, UniProt P25021); test: CEREP binding panel; conditions: antagonist radioligand, read-out: % Inhibition of Control Specific Binding
T13 construct: purchased Millipore KinaseProfiler (kinases); Cerep (receptors and ion channels)

[15] = target: T14, AXL (Homo sapiens, UniProt P30530); test: Millipore kinase panel; format: biochemical; conditions: read-out: % Control
T14 construct: purchased Millipore KinaseProfiler (kinases); Cerep (receptors and ion channels)

[16] = target: T15, 5-HT2A (h) (Homo sapiens, UniProt P28223); test: CEREP binding panel; conditions: antagonist radioligand, read-out: % Inhibition of Control Specific Binding
T15 construct: purchased Millipore KinaseProfiler (kinases); Cerep (receptors and ion channels)

[17] = target: T16, SGK3 (Homo sapiens, UniProt Q96BR1); test: Millipore kinase panel; format: biochemical; conditions: read-out: % Control
T16 construct: purchased Millipore KinaseProfiler (kinases); Cerep (receptors and ion channels)

[18] = target: T17, PKCZETA (Homo sapiens, UniProt Q05513); test: Millipore kinase panel; format: biochemical; conditions: read-out: % Control
T17 construct: purchased Millipore KinaseProfiler (kinases); Cerep (receptors and ion channels)

[19] = target: T18, RSK4 (Homo sapiens, UniProt Q9UK32); test: Millipore kinase panel; format: biochemical; conditions: read-out: % Control
T18 construct: purchased Millipore KinaseProfiler (kinases); Cerep (receptors and ion channels)

[20] = target: T19, PAK6 (Homo sapiens, UniProt Q9NQU5); test: Millipore kinase panel; format: biochemical; conditions: read-out: % Control
T19 construct: purchased Millipore KinaseProfiler (kinases); Cerep (receptors and ion channels)

[21] = target: T20, EPHA1 (Homo sapiens, UniProt P21709); test: Millipore kinase panel; format: biochemical; conditions: read-out: % Control
T20 construct: purchased Millipore KinaseProfiler (kinases); Cerep (receptors and ion channels)

[22] = target: T21, CHK2 (Homo sapiens, UniProt O96017); test: Millipore kinase panel; format: biochemical; conditions: read-out: % Control
T21 construct: purchased Millipore KinaseProfiler (kinases); Cerep (receptors and ion channels)

[23] = tested on: PI3 KINASE (P110A/P85A); test: Millipore kinase panel; format: biochemical; conditions: 1 μM, ATP at Km
[24] = target: T22, PDGFRBETA (Homo sapiens, UniProt P09619); test: Millipore kinase panel; format: biochemical; conditions: read-out: % Control
T22 construct: purchased Millipore KinaseProfiler (kinases); Cerep (receptors and ion channels)

[25] = target: T23, PAK4 (Homo sapiens, UniProt O96013); test: Millipore kinase panel; format: biochemical; conditions: read-out: % Control
T23 construct: purchased Millipore KinaseProfiler (kinases); Cerep (receptors and ion channels)

[26] = target: T24, MAPKAP-K2 (Homo sapiens, UniProt P49137); test: Millipore kinase panel; format: biochemical; conditions: read-out: % Control
T24 construct: purchased Millipore KinaseProfiler (kinases); Cerep (receptors and ion channels)
T24 sequence (P49137 whole entry): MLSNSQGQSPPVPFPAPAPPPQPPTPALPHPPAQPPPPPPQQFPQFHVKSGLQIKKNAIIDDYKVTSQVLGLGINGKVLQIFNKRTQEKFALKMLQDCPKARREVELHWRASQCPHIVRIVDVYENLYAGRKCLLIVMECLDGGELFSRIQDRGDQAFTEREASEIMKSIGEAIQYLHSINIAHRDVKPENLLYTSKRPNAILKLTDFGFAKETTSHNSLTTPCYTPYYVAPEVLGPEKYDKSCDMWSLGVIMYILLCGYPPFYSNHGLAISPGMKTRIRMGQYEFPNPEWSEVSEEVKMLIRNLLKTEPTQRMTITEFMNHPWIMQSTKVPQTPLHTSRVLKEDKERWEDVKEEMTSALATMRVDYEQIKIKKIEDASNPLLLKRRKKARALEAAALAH

[27] = target: T25, RON (Homo sapiens, UniProt Q04912); test: Millipore kinase panel; format: biochemical; conditions: read-out: % Control
T25 construct: purchased Millipore KinaseProfiler (kinases); Cerep (receptors and ion channels)

[28] = target: T26, M2 (h) (Homo sapiens, UniProt P08172); test: CEREP binding panel; conditions: antagonist radioligand, read-out: % Inhibition of Control Specific Binding
T26 construct: purchased Millipore KinaseProfiler (kinases); Cerep (receptors and ion channels)

[29] = target: T27, SGK2 (Homo sapiens, UniProt Q9HBY8); test: Millipore kinase panel; format: biochemical; conditions: read-out: % Control
T27 construct: purchased Millipore KinaseProfiler (kinases); Cerep (receptors and ion channels)

[30] = tested on: BLK; test: Millipore kinase panel; format: biochemical; conditions: 1 μM, ATP at Km
[31] = target: T28, NOP (ORL1) (h) (Homo sapiens, UniProt P41146); test: CEREP binding panel; conditions: agonist radioligand, read-out: % Inhibition of Control Specific Binding
T28 construct: purchased Millipore KinaseProfiler (kinases); Cerep (receptors and ion channels)
T28 sequence (P41146 whole entry): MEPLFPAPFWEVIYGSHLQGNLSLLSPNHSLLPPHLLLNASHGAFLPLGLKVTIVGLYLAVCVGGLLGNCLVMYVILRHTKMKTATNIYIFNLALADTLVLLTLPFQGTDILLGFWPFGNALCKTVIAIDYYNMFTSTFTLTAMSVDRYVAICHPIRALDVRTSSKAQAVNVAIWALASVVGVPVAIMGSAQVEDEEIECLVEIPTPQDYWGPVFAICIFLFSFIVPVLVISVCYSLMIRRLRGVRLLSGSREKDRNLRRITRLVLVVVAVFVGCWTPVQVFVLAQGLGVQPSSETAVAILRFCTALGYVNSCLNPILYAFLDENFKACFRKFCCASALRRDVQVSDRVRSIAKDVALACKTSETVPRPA

[32] = target: T29, TRKB (Homo sapiens, UniProt Q16620); test: Millipore kinase panel; format: biochemical; conditions: read-out: % Control
T29 construct: purchased Millipore KinaseProfiler (kinases); Cerep (receptors and ion channels)
T29 sequence (Q16620 32-822): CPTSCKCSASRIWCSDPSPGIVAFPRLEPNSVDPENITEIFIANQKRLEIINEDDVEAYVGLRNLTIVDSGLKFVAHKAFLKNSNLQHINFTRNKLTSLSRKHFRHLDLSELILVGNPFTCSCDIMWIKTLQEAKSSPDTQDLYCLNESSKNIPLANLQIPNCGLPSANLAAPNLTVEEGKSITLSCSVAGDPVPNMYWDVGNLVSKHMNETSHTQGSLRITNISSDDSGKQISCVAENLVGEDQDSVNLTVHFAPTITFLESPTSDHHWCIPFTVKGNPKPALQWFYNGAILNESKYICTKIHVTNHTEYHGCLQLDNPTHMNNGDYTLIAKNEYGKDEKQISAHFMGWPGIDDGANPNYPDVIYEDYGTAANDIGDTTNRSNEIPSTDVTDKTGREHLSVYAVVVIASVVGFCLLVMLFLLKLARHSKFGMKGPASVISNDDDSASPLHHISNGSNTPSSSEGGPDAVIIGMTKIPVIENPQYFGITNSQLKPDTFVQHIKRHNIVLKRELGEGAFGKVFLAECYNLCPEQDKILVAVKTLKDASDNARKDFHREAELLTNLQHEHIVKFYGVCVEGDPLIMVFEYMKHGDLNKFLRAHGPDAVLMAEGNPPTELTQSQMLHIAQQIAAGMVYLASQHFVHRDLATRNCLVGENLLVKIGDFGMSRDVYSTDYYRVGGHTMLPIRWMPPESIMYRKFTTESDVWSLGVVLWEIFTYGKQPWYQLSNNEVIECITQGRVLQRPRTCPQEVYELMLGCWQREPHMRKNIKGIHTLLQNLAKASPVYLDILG

[33] = target: T30, CDK9/CYCLINT1 (Homo sapiens, UniProt P50750); test: Millipore kinase panel; format: biochemical; conditions: read-out: % Control
T30 construct: purchased Millipore KinaseProfiler (kinases); Cerep (receptors and ion channels)

[34] = target: T31, EPHA5 (Homo sapiens, UniProt P54756); test: Millipore kinase panel; format: biochemical; conditions: read-out: % Control
T31 construct: purchased Millipore KinaseProfiler (kinases); Cerep (receptors and ion channels)

[35] = target: T32, ITK (Homo sapiens, UniProt Q08881); test: Millipore kinase panel; format: biochemical; conditions: read-out: % Control
T32 construct: purchased Millipore KinaseProfiler (kinases); Cerep (receptors and ion channels)

[36] = target: T33, PDGFRALPHA (Homo sapiens, UniProt P16234); test: Millipore kinase panel; format: biochemical; conditions: read-out: % Control
T33 construct: purchased Millipore KinaseProfiler (kinases); Cerep (receptors and ion channels)

[37] = target: T34, FMS (Homo sapiens, UniProt P07333); test: Millipore kinase panel; format: biochemical; conditions: read-out: % Control
T34 construct: purchased Millipore KinaseProfiler (kinases); Cerep (receptors and ion channels)
T34 sequence (P07333 20-972): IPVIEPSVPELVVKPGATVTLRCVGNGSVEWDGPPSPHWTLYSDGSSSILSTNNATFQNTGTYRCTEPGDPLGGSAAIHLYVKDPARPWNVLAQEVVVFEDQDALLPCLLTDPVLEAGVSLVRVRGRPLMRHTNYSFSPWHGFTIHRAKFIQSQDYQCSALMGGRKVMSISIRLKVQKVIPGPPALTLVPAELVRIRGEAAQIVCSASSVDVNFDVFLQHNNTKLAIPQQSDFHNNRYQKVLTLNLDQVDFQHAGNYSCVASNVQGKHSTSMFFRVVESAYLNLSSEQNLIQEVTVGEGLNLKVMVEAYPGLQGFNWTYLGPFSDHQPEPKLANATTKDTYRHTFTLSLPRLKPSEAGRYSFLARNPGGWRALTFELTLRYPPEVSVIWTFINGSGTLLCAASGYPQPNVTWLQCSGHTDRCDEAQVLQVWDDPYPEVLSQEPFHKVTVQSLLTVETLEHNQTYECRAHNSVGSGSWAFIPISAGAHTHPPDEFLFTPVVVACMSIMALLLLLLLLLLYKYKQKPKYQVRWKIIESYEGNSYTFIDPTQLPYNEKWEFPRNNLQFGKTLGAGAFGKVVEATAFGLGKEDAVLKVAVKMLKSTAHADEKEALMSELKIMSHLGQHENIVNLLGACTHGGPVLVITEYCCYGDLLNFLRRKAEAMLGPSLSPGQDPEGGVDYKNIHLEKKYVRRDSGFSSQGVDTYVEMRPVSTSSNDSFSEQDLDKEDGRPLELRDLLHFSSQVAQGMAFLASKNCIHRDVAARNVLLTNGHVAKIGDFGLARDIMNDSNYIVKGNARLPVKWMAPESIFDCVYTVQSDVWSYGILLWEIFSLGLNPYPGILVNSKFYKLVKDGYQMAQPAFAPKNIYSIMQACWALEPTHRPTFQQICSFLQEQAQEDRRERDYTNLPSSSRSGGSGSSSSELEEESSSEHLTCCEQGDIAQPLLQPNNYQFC

[38] = target: T35, SNK (Homo sapiens, UniProt Q9NYY3); test: Millipore kinase panel; format: biochemical; conditions: read-out: % Control
T35 construct: purchased Millipore KinaseProfiler (kinases); Cerep (receptors and ion channels)

[39] = target: T36, GRK5 (Homo sapiens, UniProt P34947); test: Millipore kinase panel; format: biochemical; conditions: read-out: % Control
T36 construct: purchased Millipore KinaseProfiler (kinases); Cerep (receptors and ion channels)

[40] = target: T37, MST3 (Homo sapiens, UniProt Q9Y6E0); test: Millipore kinase panel; format: biochemical; conditions: read-out: % Control
T37 construct: purchased Millipore KinaseProfiler (kinases); Cerep (receptors and ion channels)

[41] = target: T38, FES (Homo sapiens, UniProt P07332); test: Millipore kinase panel; format: biochemical; conditions: read-out: % Control
T38 construct: purchased Millipore KinaseProfiler (kinases); Cerep (receptors and ion channels)

[42] = target: T39, JAK2 (Homo sapiens, UniProt O60674); test: Millipore kinase panel; format: biochemical; conditions: read-out: % Control
T39 construct: purchased Millipore KinaseProfiler (kinases); Cerep (receptors and ion channels)

[43] = target: T40, HASPIN (Homo sapiens, UniProt Q8TF76); test: Millipore kinase panel; format: biochemical; conditions: read-out: % Control
T40 construct: purchased Millipore KinaseProfiler (kinases); Cerep (receptors and ion channels)

[44] = target: T41, VPAC1 (VIP1) (h) (Homo sapiens, UniProt P32241); test: CEREP binding panel; conditions: agonist radioligand, read-out: % Inhibition of Control Specific Binding
T41 construct: purchased Millipore KinaseProfiler (kinases); Cerep (receptors and ion channels)

SMILES: O=C1NCCC12CCN(c1c(Cl)cncc1-c1ccc(N3CCOCC3)cc1)CC2 [Compound 44, 8-(3-Chloro-5-(4-morpholin-4-ylphenyl)pyridin-4-yl)-2,8-diazaspiro[4.5]decan-1-one]
- remaining activity at 1 µM [1]: -1%
- remaining activity at 1 µM [2]: 4%
- remaining activity at 1 µM [3]: -2%
- remaining activity at 1 µM [4]: 5%
- remaining activity at 1 µM [5]: 14%
- inhibition at 10 µM [6]: -8%
- remaining activity at 1 µM [7]: 7%
- % Inhibition of Control Specific Binding [8]: 2%
- inhibition at 10 µM [9]: 11%
- remaining activity at 1 µM [10]: -22%
- remaining activity at 1 µM [11]: -6%
- remaining activity at 1 µM [12]: 0%
- inhibition at 10 µM [13]: -22%
- inhibition at 10 µM [14]: -16%
- remaining activity at 1 µM [15]: -12%
- inhibition at 10 µM [16]: -1%
- remaining activity at 1 µM [17]: 5%
- remaining activity at 1 µM [18]: 5%
- remaining activity at 1 µM [19]: 2%
- remaining activity at 1 µM [20]: 13%
- remaining activity at 1 µM [21]: -2%
- remaining activity at 1 µM [22]: 15%
- % Control [23]: 1%
- remaining activity at 1 µM [24]: 13%
- remaining activity at 1 µM [25]: -2%
- remaining activity at 1 µM [26]: 0%
- remaining activity at 1 µM [27]: 13%
- inhibition at 10 µM [28]: 24%
- remaining activity at 1 µM [29]: -5%
- % Control [30]: 16%
- inhibition at 10 µM [31]: 12%
- remaining activity at 1 µM [32]: 2%
- remaining activity at 1 µM [33]: -24%
- remaining activity at 1 µM [34]: 11%
- remaining activity at 1 µM [35]: 16%
- remaining activity at 1 µM [36]: 2%
- remaining activity at 1 µM [37]: -39%
- remaining activity at 1 µM [38]: -5%
- remaining activity at 1 µM [39]: 0%
- remaining activity at 1 µM [40]: 34%
- remaining activity at 1 µM [41]: 14%
- remaining activity at 1 µM [42]: 4%
- remaining activity at 1 µM [43]: 21%
- inhibition at 10 µM [44]: 0%
